Laboratory results published in the supplement of paper PMC11551840.

Columns and labels:
Experiment in all cases: IC50 (cell viability, 72 h) (ln(µM))
ORL-214 = test system: ORL-214
Protocol: (§1)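 Discovery screen of OSCC cell lines in 1,536-well plates. Cells were treated 24 h after seeding with 7 concentrations spanning a 1,000-fold half-log range for 72 h, and viability was read by CellTiter-Glo 2.0 and normalised to DMSO (1) and medium-only (0) controls. IC50 comes from a two-parameter logistic nonlinear mixed-effects fit and is reported as natural log of IC50 in µM.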

ORL-115 = test system: ORL-115
Protocol: as §1

ORL-48 = test system: ORL-48
Protocol: as §1

BICR10 = test system: BICR10
Protocol: as §1

SAS = test system: SAS
Protocol: as §1

ORL-136 = test system: ORL-136
Protocol: as §1

HSC-4 = test system: HSC-4
Protocol: as §1

ORL-174 = test system: ORL-174
Protocol: as §1

ORL-188 = test system: ORL-188
Protocol: as §1

HO-1-u-1 = test system: HO-1-u-1
Protocol: as §1

ORL-195 = test system: ORL-195
Protocol: as §1

ORL-207 = test system: ORL-207
Protocol: as §1

ORL-150 = test system: ORL-150
Protocol: as §1

HSC-2 = test system: HSC-2
Protocol: as §1

ORL-215 = test system: ORL-215
Protocol: as §1

ORL-204 = test system: ORL-204
Protocol: as §1

SCC-9 = test system: SCC-9
Protocol: as §1

ORL-166 = test system: ORL-166
Protocol: as §1

ORL-156 = test system: ORL-156
Protocol: as §1

PE-CA-PJ15 = test system: PE-CA-PJ15
Protocol: as §1

ORL-153 = test system: ORL-153
Protocol: as §1

Structure (SMILES)	IC50 (ln) (ORL-214)	IC50 (ln) (ORL-115)	IC50 (ln) (ORL-48)	IC50 (ln) (BICR10)	IC50 (ln) (SAS)	IC50 (ln) (ORL-136)	IC50 (ln) (HSC-4)	IC50 (ln) (ORL-174)	IC50 (ln) (ORL-188)	IC50 (ln) (HO-1-u-1)	IC50 (ln) (ORL-195)	IC50 (ln) (ORL-207)	IC50 (ln) (ORL-150)	IC50 (ln) (HSC-2)	IC50 (ln) (ORL-215)	IC50 (ln) (ORL-204)	IC50 (ln) (SCC-9)	IC50 (ln) (ORL-166)	IC50 (ln) (ORL-156)	IC50 (ln) (PE-CA-PJ15)	IC50 (ln) (ORL-153)
Cc1c2oc3c(C)ccc(C(=O)N[C@@H]4C(=O)N[C@H](C(C)C)C(=O)N5CCC[C@H]5C(=O)N(C)CC(=O)N(C)[C@@H](C(C)C)C(=O)O[C@@H]4C)c3nc-2c(C(=O)N[C@@H]2C(=O)N[C@H](C(C)C)C(=O)N3CCC[C@H]3C(=O)N(C)CC(=O)N(C)[C@@H](C(C)C)C(=O)O[C@@H]2C)c(N)c1=O [Dactinomycin]	-5.57	-4.09	-5.43	-3.88	-4.65	-4.38	-3.96	-5.84	-5.69	-5.18	-5.67	-5.32	-5.32	-5.7	-4.6	-4.99	-2.9	-6.04	-5.7	-4.55	-6.27
CCc1cnn2c(NCc3ccc[n+]([O-])c3)cc(N3CCCC[C@H]3CCO)nc12 [Dinaciclib]	-4.09	-4.03	-3.44	-2.5	-4.47	-2.65	-3.41	-4.02	-4.08	-3.83	-3.57	-3.83	-3.93	-4.36	-4.15	-3.8	-1.35	-4.64	-4.06	-3.29	-3.5
